From EP4806899A1, “FUSED RING DERIVATIVE, PREPARATION METHOD THEREFOR AND USE THEREOF IN MEDICINE” (Shanghai Qilu Pharmaceutical Research and Development …, priority 2023, dated 2025)

Legend:
[1] = biological target: T1, human CYP11B2 enzyme (Homo sapiens, UniProt P19099); assay: Enzyme inhibition activity assay in G402 cells stably expressing human CYP11B2 (aldosterone production from 11-DOC, LC/MS); assay type: cell-based; details: 1 µM 11-DOC, 16 hours, aldosterone detected
T1 construct: the ORF of human CYP11B1 or CYP11B2 were transfected into G402 cells; expressed in transfected cells
T1 sequence (P19099 25-503): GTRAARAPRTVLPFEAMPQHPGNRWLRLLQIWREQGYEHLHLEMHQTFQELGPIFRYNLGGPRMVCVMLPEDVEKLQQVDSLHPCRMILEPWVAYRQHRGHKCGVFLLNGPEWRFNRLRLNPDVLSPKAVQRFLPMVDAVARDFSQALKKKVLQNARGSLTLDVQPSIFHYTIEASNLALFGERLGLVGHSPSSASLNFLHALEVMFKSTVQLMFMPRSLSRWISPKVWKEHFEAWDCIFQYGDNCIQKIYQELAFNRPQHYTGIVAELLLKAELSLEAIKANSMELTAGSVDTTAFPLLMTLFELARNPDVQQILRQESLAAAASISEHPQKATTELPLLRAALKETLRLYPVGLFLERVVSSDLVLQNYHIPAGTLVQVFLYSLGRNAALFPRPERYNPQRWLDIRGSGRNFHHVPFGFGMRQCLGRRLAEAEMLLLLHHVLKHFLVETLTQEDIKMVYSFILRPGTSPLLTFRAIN
Description: (§1) G402 cells (ATCC, CRL 1440) are epithelioid cells isolated from the kidney of a patient with renal failure and are a type of leiomyoblastoma. For the screening of highly specific CYP11B2 inhibitors, we specifically used G402 cell lines stably expressing human CYP11B2 enzyme or human CYP11B1 enzyme for experimental development.
(§2) Construction of Stably Transfected Cell Lines: Expression plasmids containing suitable promoters, suitable drug resistance markers, and the ORF of human CYP11B1 or CYP11B2 were transfected into G402 cells using standard techniques. The cells were then screened using the specific puromycin resistance marker. Monoclonal cells stably expressing human CYP11B2 were selected for expansion, and 11-deoxycorticosterone (11-DOC) was used as the specific substrate to evaluate enzyme activity based on aldosterone production. Monoclonal cells stably expressing human CYP11B1 were selected for expansion, and 11-deoxycortisol (11-DC) was used as the specific substrate, with cortisol production as the detection target for specific enzyme activity evaluation. The G402 cell lines stably expressing CYP11B1/CYP11B2 were cultured at 37 °C, 5% CO2, 95% air in complete medium (McCoy's 5A + 10% FBS + 1% PS + 0.5 µg/mL puromycin).
(§3) Enzyme Inhibition Activity Assay: CYP11B1 G402/CYP11B2 G402 cells were spread out flatly in cell culture plates. After 24 hours, the medium was changed to an enzyme testing system (DMEM/F12 + 2.5% charcoal-stripped FCS). Small molecule inhibitors at various concentrations were added. After 1 hour, appropriate concentrations of specific substrates (1 µM 11-DOC / 1 µM 11-DC) were added and co-incubated with the cells for 16 hours. Cells were then collected, and specific products were detected using LC/MS methods with an AB SCIEX TRIPLE QUAD 5500+, CTO-40S instrument (CYP11B2 enzyme detecting aldosterone; CYP11B1 enzyme detecting cortisol).
(§4) The IC50 values of the compounds were determined based on the G402 testing system. The dose-dependent inhibition of enzyme activity was calculated by plotting the added inhibitor concentration (x-axis) against the percentage of product inhibitory activity relative to the control group (y-axis) based on product formation at various compound concentrations. The following data were then fitted using the least squares method with XLfit 5.5.0 for a four-parameter logistic curve fit: [formula] • Y-axis: Percentage of product inhibitory activity relative to the control group; • logIC50: IC50 was determined using XLFit.
(§5) The maximum enzyme activity corresponds to the amount of control product steroid/aldosterone in the absence of inhibitor, set as 100%. The minimum enzyme activity corresponds to the amount of reference control product steroid/aldosterone in the presence of inhibitor. Table 3 Inhibitory Activity of the Compounds of the Present Disclosure on CYP11B2 and CYP11B1

[2] = biological target: T2, human CYP11B1 enzyme (Homo sapiens, UniProt P15538); assay: Enzyme inhibition activity assay in G402 cells stably expressing human CYP11B1 (cortisol production from 11-DC, LC/MS); assay type: cell-based; details: 1 µM 11-DC, 16 hours, cortisol detected
T2 construct: the ORF of human CYP11B1 or CYP11B2 were transfected into G402 cells; expressed in transfected cells
T2 sequence (P15538 25-503): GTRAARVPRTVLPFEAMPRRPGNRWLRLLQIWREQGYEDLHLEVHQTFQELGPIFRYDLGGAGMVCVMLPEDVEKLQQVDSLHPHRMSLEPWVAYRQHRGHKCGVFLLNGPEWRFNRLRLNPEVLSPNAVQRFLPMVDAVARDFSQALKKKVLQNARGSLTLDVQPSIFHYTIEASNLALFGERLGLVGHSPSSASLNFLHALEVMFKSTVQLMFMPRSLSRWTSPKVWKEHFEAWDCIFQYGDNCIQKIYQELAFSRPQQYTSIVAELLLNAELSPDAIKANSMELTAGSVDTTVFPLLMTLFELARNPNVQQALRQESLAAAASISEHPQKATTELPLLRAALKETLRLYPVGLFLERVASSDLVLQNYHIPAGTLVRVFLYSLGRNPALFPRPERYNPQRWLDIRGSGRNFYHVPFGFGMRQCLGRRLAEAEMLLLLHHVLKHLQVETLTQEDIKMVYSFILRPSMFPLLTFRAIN
Description: as §1, §2, §3, §4, §5

Row | Structure (SMILES) | IC50 [1] | IC50 [2]
1 | CCC(=O)N[C@@H]1COCc2c(-c3ccc4c(c3)CCC(=O)N4C)cncc21 [Compound A01] | 41.7 nM | –
2 | CCC(=O)N[C@@H]1CC=Cc2c(-c3ccc4c(c3)CCC(=O)N4C)cncc21 [Compound A04-P1] | 5.6 nM | 244 nM
3 | CNC(=O)N[C@@H]1CCCc2c(-c3ccc4c(c3)OCC(=O)N4C)cncc21 [Compound A24] | 11.7 nM | 1550 nM
4 | [2H]C([2H])([2H])NC(=O)N[C@@H]1CCCc2c(-c3ccc4c(c3)OCC(=O)N4C)cncc21 [Compound A25] | 14.9 nM | 2150 nM
5 | CN(C)C(=O)N[C@@H]1CCCc2c(-c3ccc4c(c3)OCC(=O)N4C)cncc21 [Compound A26] | 19 nM | –
6 | CN(C)C(=O)N[C@@H]1CCCc2c(-c3ccc4c(c3)COC(=O)N4C)cncc21 [Compound A33] | 9.7 nM | 312 nM
7 | CNC(=O)N[C@@H]1CCCc2c(-c3ccc4c(c3)COC(=O)N4C)cncc21 [Compound A34] | 7.5 nM | 294 nM
8 | CCC(=O)N[C@@H]1CCOc2c(-c3cc(F)c4c(c3)cc(C#N)n4C)cncc21 [Compound A55] | 4.5 nM | –
9 | CCC(=O)N[C@@H]1CCOc2c(-c3cc(Cl)c4c(c3)cc(C#N)n4C)cncc21 [Compound A56] | 11.6 nM | –
10 | CCC(=O)NC1CCCc2c(-c3cnc4c(c3)CCCN4C(N)=O)cncc21 (centres unmarked) [Compound C02] | 16.9 nM | –
11 | CCC(=O)N[C@@H]1CCCc2c(-c3ccc4c(c3)cc(F)c(=O)n4C)cncc21 [Compound C16] | 43.3 nM | –
12 | CCC(=O)N[C@@H]1CCCc2c(-c3ccc4c(cnn4C)c3)cncc21 [Compound C21] | 26.5 nM | –
13 | CCC(=O)N[C@@H]1CCCc2c(-c3ccc4c(c3)CC(=O)N4C)cncc21 [Compound C24] | 24.2 nM | –
14 | CCC(=O)N[C@@H]1CCCc2c(-c3ccc4c(ccc(=O)n4C)c3F)cncc21 [Compound C45] | 33 nM | –
15 | CNC(=O)N[C@@H]1CCCc2c(-c3ccc4c(c3)CCC(=O)N4C)cncc21 [Compound D01] | 5.9 nM | –
16 | CN1C(=O)CCc2cc(-c3cncc4c3CCC[C@H]4N3CCCC3=O)ccc21 [Compound D03] | 8.1 nM | –
17 | COC(=O)N[C@@H]1CCCc2c(-c3ccc4c(c3)CCC(=O)N4C)cncc21 [Compound D05] | 3.4 nM | –
18 | C[C@@H](F)C(=O)N[C@@H]1CCCc2c(-c3ccc4c(c3)CCC(=O)N4C)cncc21 [Compound D07-P1] | 33.9 nM | –
19 | CCNC(=O)N[C@@H]1CCCc2c(-c3ccc4c(c3)CCC(=O)N4C)cncc21 [Compound D09] | 28.2 nM | –
20 | CN1C(=O)CCc2cc(-c3cncc4c3CCC[C@H]4N3CCC4(CC4)C3=O)ccc21 [Compound D14] | 13 nM | –
21 | CN1C(=O)CCc2cc(-c3cncc4c3CCC[C@H]4NC(=O)N3CCC3)ccc21 [Compound D17] | 33.3 nM | –

Next, values leading:

Row | IC50 [1] | IC50 [2] | Structure (SMILES)
22 | 7.3 nM | 1260 nM | [2H]C([2H])([2H])NC(=O)N[C@@H]1CCOc2c(-c3ccc4c(c3)CCC(=O)N4C)cncc21 [Compound A11]
23 | 12.6 nM | 3120 nM | CN(C)C(=O)N[C@@H]1CCOc2c(-c3ccc4c(c3)CCC(=O)N4C)cncc21 [Compound A12]
24 | 4.5 nM | 381 nM | [2H]C([2H])([2H])OC(=O)N[C@@H]1CCOc2c(-c3ccc4c(c3)CCC(=O)N4C)cncc21 [Compound A13]
25 | 2.3 nM | 202 nM | COC(=O)N[C@@H]1CCOc2c(-c3ccc4c(c3)CCC(=O)N4C)cncc21 [Compound A14]
26 | 9.9 nM | – | [2H]C([2H])([2H])NC(=O)N[C@@H]1CCCc2c(-c3ccc4c(ccc(=O)n4C)c3)cncc21 [Compound A15]
27 | 23.1 nM | – | [2H]C([2H])([2H])NC(=O)N[C@@H]1CCOc2c(-c3ccc4c(ccc(=O)n4C)c3)cncc21 [Compound A17]
28 | 7.5 nM | 517 nM | [2H]C([2H])([2H])NC(=O)N[C@@H]1CCOc2c(-c3ccc4c(c3)COC(=O)N4C)cncc21 [Compound A18]
29 | 35.5 nM | – | CCC(=O)N[C@@H]1CCOc2c(-c3ccc4c(c3)OCC(=O)N4C)cncc21 [Compound A19]
30 | 29.1 nM | – | CCC(=O)N[C@@H]1CCOc2c(-c3cc(F)c4c(ccc(=O)n4C)c3)cncc21 [Compound A20]
31 | 9.4 nM | 739 nM | CNC(=O)N[C@@H]1CCCc2c(-c3ccc4c(ccc(=O)n4C)c3)cncc21 [Compound A21]
32 | 7.6 nM | 1190 nM | [2H]C([2H])([2H])NC(=O)N[C@@H]1CCCc2c(-c3cc(F)c4c(ccc(=O)n4C)c3)cncc21 [Compound A22]
33 | 12.5 nM | 1920 nM | CN(C)C(=O)N[C@@H]1CCCc2c(-c3ccc4c(ccc(=O)n4C)c3)cncc21 [Compound A23]
34 | 5 nM | 213 nM | [2H]C([2H])([2H])OC(=O)N[C@@H]1CCCc2c(-c3ccc4c(ccc(=O)n4C)c3)cncc21 [Compound A27]
35 | 3.6 nM | 111 nM | [2H]C([2H])([2H])OC(=O)N[C@@H]1CCCc2c(-c3ccc4c(c3)COC(=O)N4C)cncc21 [Compound A28]
36 | 8.8 nM | 479 nM | [2H]C([2H])([2H])OC(=O)N[C@@H]1CCCc2c(-c3ccc4c(c3)OCC(=O)N4C)cncc21 [Compound A29]
37 | 34.7 nM | – | [2H]C([2H])([2H])NC(=O)N[C@@H]1CCOc2c(-c3ccc4c(c3)OCC(=O)N4C)cncc21 [Compound A32]
38 | 1.4 nM | 184 nM | COC(=O)N[C@@H]1CCOc2c(-c3ccc4c(c3)cc(C#N)n4C)cncc21 [Compound A35]
39 | 1.3 nM | 136 nM | [2H]C([2H])([2H])OC(=O)N[C@@H]1CCOc2c(-c3ccc4c(c3)cc(C#N)n4C)cncc21 [Compound A36]
40 | 2.5 nM | 311 nM | CNC(=O)N[C@@H]1CCOc2c(-c3ccc4c(c3)cc(C#N)n4C)cncc21 [Compound A37]
41 | 2.3 nM | 283 nM | [2H]C([2H])([2H])NC(=O)N[C@@H]1CCOc2c(-c3ccc4c(c3)cc(C#N)n4C)cncc21 [Compound A38]
42 | 10.1 nM | 1450 nM | [2H]C([2H])([2H])OC(=O)N[C@@H]1CCOc2c(-c3ccc4c(ccc(=O)n4C)c3)cncc21 [Compound A39]
43 | 6.1 nM | 487 nM | [2H]C([2H])([2H])OC(=O)N[C@@H]1CCOc2c(-c3ccc4c(c3)COC(=O)N4C)cncc21 [Compound A40]
44 | 28.9 nM | – | [2H]C([2H])([2H])OC(=O)N[C@@H]1CCOc2c(-c3ccc4c(c3)OCC(=O)N4C)cncc21 [Compound A41]
45 | 21.9 nM | – | COC(=O)N[C@@H]1CCOc2c(-c3ccc4c(c3)OCC(=O)N4C)cncc21 [Compound A44]
46 | 32.7 nM | – | CCC(=O)N[C@@H]1CCCc2c(-c3ccc4c(ccc(=O)n4C(F)F)c3)cncc21 [Compound C33]
